From patent US11986532B2 (Arvinas Operations, Inc., priority 2021, dated 2024)
Where two headings read alike, the source gives them in different places.

Molecular target: T1, BCL6 (Homo sapiens, UniProt P41182)
T1 construct: endogenous in cells; host or cells: T47D breast cancer epithelial cells
Assay: Immunofluorescence protocol for high content imaging of BCL6 (degradation) in T47D cells, 3 days compound treatment
Assay type: cell-based
Details: for DC50: read-out: Mean DC50 (nM)* category; for Dmax: read-out: Mean Dmax (%)** category
Summary of the method: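 T47D, RPMI1640/10% FBS; cpd 11-pt 3-fold, top 0.1 or 1 μM final; 3 d, 37° C. Fix 4% PFA, perm 0.1% Triton, block 3% BSA; anti-BCL6 1:300 o/n 4° C; Alexa-488 2°, CellMask-647, Hoechst. Imaged 10×, 4 fields/well.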

[1] = T47D cells, 3 days compound treatment

Row | Compound | DC50 [1] [nM] | Dmax [1] [%] | Dmax (T47D) [%] | DC50 [nM] | Mean Dmax (%)** category
1 | CNC(=O)COc1cc2cc(Nc3nc(N4CCC(O[C@H]5C[C@@H](N6CCC(c7ccc8c(c7)C(=O)N(C7CCC(=O)NC7=O)C8=O)CC6)C5)CC4)ncc3Cl)ccc2n(C(C)C)c1=O (stereo partly shown) [Compound 153, 2-({6-[(5-chloro-2-{4-[(1s,3s)-3-{4-[2-(2,6-dioxopiperidin-3-yl)-1,3-dioxo-2,3-dihydro-1H-isoindol-5-yl]piperidin-1-yl}cyclobutoxy]piperidin-1-yl}pyrimidin-4-yl)amino]-2-oxo-1-(propan-2-yl)-1,2-dihydroquinolin-3-yl}oxy)-N-methylacetamide] | 50 to 100 | < 50 | – | – | –
2 | CNC(=O)COc1cc2cc(Nc3nc(N4CCC5(CCN(CC6CCN(c7ccc8c(c7)CN(C7CCC(=O)NC7=O)C8=O)CC6)C5)C4)ncc3Cl)ccc2n(C(C)C)c1=O (stereo not shown) [Compound 3, 2-{[6-({5-chloro-2-[7-({1-[2-(2,6-dioxopiperidin-3-yl)-1-oxo-2,3-dihydro-1H-isoindol-5-yl]piperidin-4-yl}methyl)-2,7-diazaspiro[4.4]nonan-2-yl]pyrimidin-4-yl}amino)-2-oxo-1-(propan-2-yl)-1,2-dihydroquinolin-3-yl]oxy}-N-methylacetamide] | < 10 | 50 to 70 | – | – | –
3 | CNC(=O)COc1cc2cc(Nc3cc(N4CCC(F)(CN5CCC6(CC5)CN(c5ccc7c(c5F)CN(C5CCC(=O)NC5=O)C7=O)C6(C)C)CC4)ncc3Cl)ccc2n(C(C)C)c1=O (stereo not shown) [Compound 257, 2-{[6-({5-chloro-2-[4-({2-[2-(2,6-dioxopiperidin-3-yl)-4-fluoro-1-oxo-2,3-dihydro-1H-isoindol-5-yl]-1,1-dimethyl-2,7-diazaspiro[3.5]nonan-7-yl}methyl)-4-fluoropiperidin-1-yl]pyridin-4-yl}amino)-2-oxo-1-(propan-2-yl)-1,2-dihydroquinolin-3-yl]oxy}-N-methylacetamide] | – | – | 50 to 70 | < 10 | –
4 | CNC(=O)COc1cc2cc(Nc3nc(N4CCC(O[C@H]5C[C@H](N6CC7(CCN7c7ccc8c(c7)CN(C7CCC(=O)NC7=O)C8=O)C6)C5)CC4)ncc3Cl)ccc2n(C(C)C)c1=O (stereo partly shown) [Compound 309, 2-({6-[(5-chloro-2-{4-[(1r,3r)-3-{1-[2-(2,6-dioxopiperidin-3-yl)-1-oxo-2,3-dihydro-1H-isoindol-5-yl]-1,6-diazaspiro[3.3]heptan-6-yl}cyclobutoxy]piperidin-1-yl}pyrimidin-4-yl)amino]-2-oxo-1-(propan-2-yl)-1,2-dihydroquinolin-3-yl}oxy)-N-methylacetamide] | – | – | 50 to 70 | < 10 | –
5 | CNC(=O)COc1cc2cc(Nc3nc(N4CCC(OC5CCC6(CC5)CN(c5ccc7c(c5C)CN(C5CCC(=O)NC5=O)C7=O)C6)CC4)ncc3Cl)ccc2n(C(C)C)c1=O (stereo not shown) [Compound 402, 2-{[6-({5-chloro-2-[4-({2-[2-(2,6-dioxopiperidin-3-yl)-4-methyl-1-oxo-2,3-dihydro-1H-isoindol-5-yl]-2-azaspiro[3.5]nonan-7-yl}oxy)piperidin-1-yl]pyrimidin-4-yl}amino)-2-oxo-1-(propan-2-yl)-1,2-dihydroquinolin-3-yl]oxy}-N-methylacetamide] | – | – | ≥ 70 | < 10 | –
6 | CNC(=O)COc1cc2cc(Nc3nc(N4CCC(OC5CN([C@H]6CC[C@H](c7ccc8c(c7)CN(C7CCC(=O)NC7=O)C8=O)CC6)C5)CC4)ncc3Cl)ccc2n(C(C)C)c1=O (single isomer, unassigned) [Compound 165, 2-((6-((5-chloro-2-(4-((1-((1r,4r)-4-(2-(2,6-dioxopiperidin-3-yl)-1-oxoisoindolin-5-yl)cyclohexyl)azetidin-3-yl)oxy)piperidin-1-yl)pyrimidin-4-yl)amino)-1-isopropyl-2-oxo-1,2-dihydroquinolin-3-yl)oxy)-N-methylacetamide] | < 10 | 50 to 70 | – | – | –
7 | CNC(=O)COc1cc2cc(Nc3nc(N4CCC(O[C@H]5C[C@H](N6CCN(c7ccc8c(n7)CN(C7CCC(=O)NC7=O)C8=O)[C@H](C)C6)C5)CC4)ncc3Cl)ccc2n(C(C)C)c1=O (stereo partly drawn) [Compound 415, 2-({6-[(5-chloro-2-{4-[(1r,3r)-3-[(3R)-4-[6-(2,6-dioxopiperidin-3-yl)-5-oxo-5H,6H,7H-pyrrolo [3,4-b]pyridin-2-yl]-3-methylpiperazin-1-yl]cyclobutoxy]piperidin-1-yl}pyrimidin-4-yl)amino]-2-oxo-1-(propan-2-yl)-1,2-dihydroquinolin-3-yl}oxy)-N-methylacetamide] | – | – | – | < 10 | A (A >= 70)
8 | CNC(=O)COc1cc2cc(Nc3nc(N4CCCCC4)ncc3Cl)ccc2n(CCOc2ccc3c(c2)C(=O)N(C2CCC(=O)N(C)C2=O)C3=O)c1=O (stereo not shown) [Compound 320, 2-[(6-{[5-chloro-2-(piperidin-1-yl)pyrimidin-4-yl]amino}-1-(2-{[2-(1-methyl-2,6-dioxopiperidin-3-yl)-1,3-dioxo-2,3-dihydro-1H-isoindol-5-yl]oxy}ethyl)-2-oxo-1,2-dihydroquinolin-3-yl)oxy]-N-methylacetamide] | – | – | – | < 10 | –
9 | CNC(=O)COc1cc2cc(Nc3nc(N4CCN(C[C@H]5C[C@H](N6CCC(c7ccc8c(c7)C(=O)N(C7CCC(=O)NC7=O)C8=O)CC6)C5)CC4)ncc3Cl)ccc2n(C(C)C)c1=O (stereo partly shown) [Compound 41, 2-[(6-{[5-chloro-2-(4-{[(1r,3r)-3-{4-[2-(2,6-dioxopiperidin-3-yl)-1,3-dioxo-2,3-dihydro-1H-isoindol-5-yl]piperidin-1-yl}cyclobutyl]methyl}piperazin-1-yl)pyrimidin-4-yl]amino}-2-oxo-1-(propan-2-yl)-1,2-dihydroquinolin-3-yl)oxy]-N-methylacetamide] | 50 to 100 | ≥ 70 | – | – | –
10 | CNC(=O)COc1cc2cc(Nc3nc(N4CCC(O[C@H]5C[C@H](N6CCN(c7ccc8c(c7F)CN(C7CCC(=O)NC7=O)C8=O)[C@H](C)C6)C5)CC4)ncc3Cl)ccc2n(C(C)C)c1=O (stereo partly shown) [Compound 175] | < 10 | ≥ 70 | – | – | –
11 | CNC(=O)COc1cc2c(F)c(Nc3cc(N4CCN(CC5CCC6(CC5)CN(c5cccc7c5C(=O)N(C5CCC(=O)NC5=O)C7=O)C6)CC4)ncc3Cl)ccc2n(C(C)C)c1=O (stereo not shown) [Compound 247, 2-{[6-({5-chloro-2-[4-({2-[2-(2,6-dioxopiperidin-3-yl)-1,3-dioxo-2,3-dihydro-1H-isoindol-4-yl]-2-azaspiro[3.5]nonan-7-yl}methyl)piperazin-1-yl]pyridin-4-yl}amino)-5-fluoro-2-oxo-1-(propan-2-yl)-1,2-dihydroquinolin-3-yl]oxy}-N-methylacetamide] | – | – | ≥ 70 | < 10 | –
12 | CNC(=O)COc1cc2cc(Nc3nc(N4CCN(C(C)(C)C5CCN(c6ccc7c(c6OC)CN(C6CCC(=O)NC6=O)C7=O)CC5)CC4)ncc3Cl)ccc2n(C(C)C)c1=O (stereo not shown) [Compound 78, 2-{[6-({5-chloro-2-[4-(2-{1-[2-(2,6-dioxopiperidin-3-yl)-4-methoxy-1-oxo-2,3-dihydro-1H-isoindol-5-yl]piperidin-4-yl}propan-2-yl)piperazin-1-yl]pyrimidin-4-yl}amino)-2-oxo-1-(propan-2-yl)-1,2-dihydroquinolin-3-yl]oxy}-N-methylacetamide] | < 10 | < 50 | – | – | –
13 | CNC(=O)COc1cc2cc(Nc3nc(N4CCN(CC5(F)CCN(c6cccc7c6CN(C6CCC(=O)NC6=O)C7=O)CC5)CC4)ncc3Cl)ccc2n(C(C)C)c1=O (stereo not shown) [Compound 114, 2-{[6-({5-chloro-2-[4-({1-[2-(2,6-dioxopiperidin-3-yl)-1-oxo-2,3-dihydro-1H-isoindol-4-yl]-4-fluoropiperidin-4-yl}methyl)piperazin-1-yl]pyrimidin-4-yl}amino)-2-oxo-1-(propan-2-yl)-1,2-dihydroquinolin-3-yl]oxy}-N-methylacetamide] | < 10 | 50 to 70 | – | – | –
14 | CNC(=O)COc1cc2cc(Nc3nc(N4CCC(O[C@H]5C[C@H](N6CCN(c7ccc8c(c7F)C(=O)N(C7CCC(=O)NC7=O)C8=O)CC6)C5)CC4)ncc3Cl)ccc2n(C(C)C)c1=O (stereo partly shown) [Compound 413, 2-({6-[(5-chloro-2-{4-[(1r,3r)-3-{4-[2-(2,6-dioxopiperidin-3-yl)-4-fluoro-1,3-dioxo-2,3-dihydro-1H-isoindol-5-yl]piperazin-1-yl}cyclobutoxy]piperidin-1-yl}pyrimidin-4-yl)amino]-2-oxo-1-(propan-2-yl)-1,2-dihydroquinolin-3-yl}oxy)-N-methylacetamide] | – | – | < 50 | 10 to 50 | –
15 | CNC(=O)COc1cc2cc(Nc3nc(N4CCC(F)(CN5CC(N6CCC(c7ccc8c(c7F)CN(C7CCC(=O)NC7=O)C8=O)CC6)C5)CC4)ncc3Cl)ccc2n(C(C)C)c1=O (stereo not shown) [Compound 285, 2-({6-[(5-chloro-2-{4-[(3-{4-[2-(2,6-dioxopiperidin-3-yl)-4-fluoro-1-oxo-2,3-dihydro-1H-isoindol-5-yl]piperidin-1-yl}azetidin-1-yl)methyl]-4-fluoropiperidin-1-yl}pyrimidin-4-yl)amino]-2-oxo-1-(propan-2-yl)-1,2-dihydroquinolin-3-yl}oxy)-N-methylacetamide] | – | – | ≥ 70 | < 10 | –
16 | CNC(=O)COc1cc2cc(Nc3nc(N4CCC5(CC4)CC(C(C)(C)N4CCN(c6cccc7c6CN(C6CCC(=O)NC6=O)C7=O)CC4)C5)ncc3Cl)ccc2n(C(C)C)c1=O (stereo not shown) [Compound 34, 2-{[6-({5-chloro-2-[2-(2-{4-[2-(2,6-dioxopiperidin-3-yl)-1-oxo-2,3-dihydro-1H-isoindol-4-yl]piperazin-1-yl}propan-2-yl)-7-azaspiro[3.5]nonan-7-yl]pyrimidin-4-yl}amino)-2-oxo-1-(propan-2-yl)-1,2-dihydroquinolin-3-yl]oxy}-N-methylacetamide] | < 10 | 50 to 70 | – | – | –
